Measurements: US8685371B2, “Agents for detecting and imaging cell death” (Cambridge Enterprise Limited, priority 2008, dated 2014)
“And” between values parts separate entries of the source, which are not always exact repeats. Equal entries are not always repeated. Where two headings read alike, the source gives them in different places.

Experiments:
Test in all cases: Surface plasmon resonance (SPR) binding to phosphatidylserine-coated L1 chip
[1] = target: T1, Rattus norvegicus synaptotagmin I C2A domain, wild type (Rattus norvegicus, UniProt P21707); settings: FIG. 8; thermal equilibrium SPR data, 1:1 Langmuir binding model, protein 5-95 nM, 37° C., 2 mM CaCl2, pH 7.4; read-out: dissociation constant (KD)
T1 construct: GST (N); made in house; host or cells: E. coli BL21
Procedure: (§1) Large multilamellar vesicles (LMVs) were prepared using three types of phospholipids (Phosphatidylserine, PS; Phosphatidylethanolamine, PE and Phosphatidylcholine, PC, Avanti Polar Lipids, Alabaster, Ala., USA). A sample of 2.6 μmol of phospholipids (PS:PE:PC mixture in chloroform; molar ratio 35:50:15) was dried under a gentle stream of nitrogen for half an hour and resuspended in 2.6 mL of C2A binding buffer (HBS=20 mM HEPES, 150 mM NaCl, pH 7.4, containing 2 mM CaCl2), by vigorous vortex mixing.
Surface Plasmon Resonance (SPR) analysis was performed on L1 sensor chips using a Biacore T100 system (Biacore, GE Healthcare). […]
Each protein solution was prepared automatically by the system at varying concentrations from 0 to 100 nM or from 5 nM to 75 nM using automated mix fraction preparation, and all injections were conducted in duplicate in C2A binding buffer at a flow rate of 30 μL min^−1 and 37° C. All concentrations were analyzed in duplicate. Protein affinity for PS was evaluated by estimating the thermal equilibrium affinity dissociation constants (KD), obtained from the response values 4 s before the end of the association phase of the corresponding interaction sensorgrams (FIG. 8). […]

[2] = target: T2, C2Am-AlxAF647: Rattus norvegicus synaptotagmin I C2A domain variant C2Am, S78C (S217C of full-length synaptotagmin I), SEQ ID NO: 1, labelled at cysteine-78 wit (Rattus norvegicus, UniProt P21707, S217C); settings: 37° C., 2 mM CaCl2, pH 7.4
T2 construct: GST (N, cleaved yes); linker between GST and C2A (part after the thrombin site) (N); made in house; host or cells: E. coli BL21
Description: (§2) The Rattus norvegicus synaptotagmin sequence was acquired using the NCBI Genbank service (sequence identity NM_001033680; NM_001033680.2) and the C2A domain was selected from this sequence. Three candidate cysteine mutants were selected at: Ser217, Gln154, Asn248 (see FIG. 2). Appropriate primers for mutagenesis were designed with the use of Quikchange Primer Design software. The C2A-containing pGEX-2T vector (GE Healthcare, Chalfont St Giles, UK) was isolated from BL21 E. coli cells and underwent a double restriction digest to confirm its identity. Mutagenesis was performed by the Stratagene QuikChange Site-Directed Mutagenesis kit. E. coli DH5α competent cells were transformed with the mutant plasmid by heat shock and the amplified vector then isolated and sequenced. Finally, E. coli BL21 cells were transformed with the vector by electroporation.
(§3) S217C (position 78 of the C2A domain; position 217 of full-length Synaptotagmin I) mutant was selected as the best expressed site-directed mutant of C2A (C2Am).
The mutant protein (C2Am) was covalently labeled with the fluorochrome Alexa Fluor 647 (AlxAF647), via a reaction between the cysteine-78 residue with the maleimide group of Alexa Fluor 647 C2 maleimide (Invitrogen). Briefly, the protein was reduced using 10 mM DTT for half an hour at room temperature. The protein was then washed in a 5-KDa vivaspin concentrator (Sartorius, Epsom, UK) in HNE buffer (20 mM HEPES, 100 mM NaCl, 5 mM EDTA, pH 7.4). This removed any residual DTT, which interferes with the conjugation reaction. The protein was kept at a concentration in the range 50-100 μM, and approximately a 10-fold molar excess of the fluorescent maleimide dye was added. The reaction was allowed to proceed on a magnetic stirrer at 4° C. overnight. Gel filtration was used to separate the modified protein from unreacted dye. Electrospray ionisation (ESI) mass spectrometry was used to confirm successful modification of the protein, which yielded a single species of approximately 17204 Da (C2Am-AlxAF647). ESI mass spectrometry of Annexin V-Alexa Fluor647™ was also performed. Briefly, samples were desalted using Millipore mC18 Ziptips and eluted with 50% MeCN/0.2% formic acid. Samples were analyzed by direct infusion at a flow rate of […] into a Waters QtofMicro, using 70% MeOH/0.2% formic acid as the mobile phase. Typical settings: capillary 3000V, cone 90V, capillary temperature 80° C., desolvation temperature 150° C., calibration by myoglobin and/or trypsinogen collected later in the same file. Deconvolution was conducted using Waters MassLynx MaxEnt 1 software (Waters Ltd, Manchester, UK). […]

[3] = target: T3, Rattus norvegicus synaptotagmin I C2A domain variant C2Am, S78C (S217C of full-length synaptotagmin I), SEQ ID NO: 1 (Rattus norvegicus, UniProt P21707, S217C); settings: 37° C., 2 mM CaCl2, pH 7.4
T3 construct: GST (N, cleaved yes); linker between GST and C2A (part after the thrombin site) (N); made in house; host or cells: E. coli BL21
Description: as §2, §3, §1
Surface Plasmon Resonance (SPR) analysis was performed on L1 sensor chips using a Biacore T100 system (Biacore, GE Healthcare).
In some experiments, the chip flow cells were washed with a 2-min pulse of a mixture of isopropanol/NaOH 50 mM (2:3 volume) at 5 μL, min^−1, and one coated with 5 μL of a suspension of SMVs containing 1 mM of phospholipids (at 1 μL min^−1), generating an average relative response of ca. 2,000 RU (relative units). Unbound multilamellar material was removed from the chip after SMV injection, by applying three 20s regeneration pulses of sodium hydroxide (50 mM, at 20 μL min^−1).
In other experiments, the chip flow cells were washed with two, 30 s pulses of 20 mM, 3-[(3Cholamidopropyl)dimethylammonio]-1-propanesulfonate (CHAPS, at 30 μL min−1), then one flow cell (test) was coated with a suspension of test SMVs (PS:PE:PC) containing 1 mM of phospholipids (at 5 μL min−1), until an average relative response of ca. 5000 RU (relative units) was reached. Unbound multilamellar material was removed from the lipid bilayer after SMV injection, by applying two, 30 s pulses of sodium hydroxide (50 mM, at 30 μL min−1).
Another flow cell was left uncoated as a control path. In some experiments, another flow cell (control) was coated with a suspension of control SMVs (PE:PC) containing 1 mM of phospholipids (at 5 μL min−1), until an average relative response of ca. 5000 RU (relative units). Control SMVs were prepared using PE and PC (molar ratio 77:23), and unbound material removed as above
After a stable baseline had been achieved, the proteins were allowed to interact sequentially with the chip surface of the two flow cells of interest, for 2 min (association phase) and 1 min (dissociation phase) at 30 μL min^−1 or for 60 s (association phase) at 40 μL min^−1 at 37° C. The phospholipid bilayer was regenerated using a 15 s or 20 s pulse of HBS containing 10 mM NaEDTA, or (HBS, 20 mm EDTA, pH 7.4) at 40 μL min^−1, after each individual injection.
Each protein solution was prepared automatically by the system at varying concentrations from 0 to 100 nM or from 5 nM to 75 nM using automated mix fraction preparation, and all injections were conducted in duplicate in C2A binding buffer at a flow rate of 30 μL min^−1 and 37° C. All concentrations were analyzed in duplicate. […]

[4] = kinetic analysis of SPR data, read-out: KD (kinetics)

T3 sequence (P21707 140-267 S217C): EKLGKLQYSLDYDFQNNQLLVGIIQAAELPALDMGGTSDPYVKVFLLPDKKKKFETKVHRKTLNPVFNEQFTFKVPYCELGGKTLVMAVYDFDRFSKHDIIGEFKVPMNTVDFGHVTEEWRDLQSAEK
T2 sequence (P21707 140-267 S217C): as above
T1 sequence (P21707 141-260 limits assumed): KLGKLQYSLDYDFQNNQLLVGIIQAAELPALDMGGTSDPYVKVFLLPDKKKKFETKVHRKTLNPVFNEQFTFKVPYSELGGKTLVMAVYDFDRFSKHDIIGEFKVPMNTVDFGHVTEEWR

Kd [1]: 48.5 ± 3.5 nM
Kd ([2]; affinity analysis of SPR data, read-out: KD (affinity)): 71 ± 6.9 nM
ka (kinetics) ([2]; kinetic analysis of SPR data): 2.14e+06 M⁻¹ s⁻¹
kd (kinetics) ([2]; kinetic analysis of SPR data): 0.188 s⁻¹
Kd [2, 4]: 87.9 nM
Kd ([3]; FIG. 8, thermal equilibrium SPR data, 1:1 Langmuir binding model, protein 5-95 nM, read-out: dissociation constant (KD)): 49.4 ± 4.9 nM
Kd ([3]; affinity analysis of SPR data, duplicate injections, listed as PS, read-out: KD (affinity)): 55.4 ± 3.5 nM
Kd ([3]; affinity analysis of SPR data, duplicate injections, read-out: KD (affinity)): ~55 nM and 55.4 nM
ka (kinetics) ([3]; kinetic analysis of SPR data): 2.01e+06 M⁻¹ s⁻¹
kd (kinetics) ([3]; kinetic analysis of SPR data): 0.110 s⁻¹
Kd [3, 4]: 54.2 nM
Substance: Phosphatidylserine
